ChEMBL document CHEMBL1124261 (J Med Chem, 1988)

Columns and labels:
L1210 [1] = assay: Mean survival of mice infected with L1210 leukemia after an intraperitoneal dose of 25 mg/kg for 9 days; assay type: functional, Mus musculus
Dihydrofolate reductase = biological target: T1, Dihydrofolate reductase (Mus musculus, UniProt P00375); assay: biochemical
T1 sequence (P00375 whole entry): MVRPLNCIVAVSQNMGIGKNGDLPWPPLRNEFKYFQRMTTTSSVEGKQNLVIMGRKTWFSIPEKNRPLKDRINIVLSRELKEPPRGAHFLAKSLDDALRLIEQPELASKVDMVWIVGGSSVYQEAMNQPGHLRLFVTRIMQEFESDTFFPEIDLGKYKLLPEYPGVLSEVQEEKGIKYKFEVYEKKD
Description: Tested for inhibition against purified Dihydrofolate reductase from L1210 murine leukemia cells

Mus musculus [2] = species on record: Mus musculus; assay: (§1) Tested for inhibition against purified Folyl-polyglutamate synthase from mouse liver; assay type: functional; details: dose or concentration not given here
L1210 [3] = assay: Mean change in weight of mice infected with L1210 leukemia after 7 days after an intraperitoneal dose of 6.25 mg/kg; assay type: functional, Mus musculus
L1210 [4] = assay: Range for the survival of mice infected with L1210 leukemia after an intraperitoneal dose of 6.25 mg/kg for 9 days; Range is 10-13; assay type: functional, Mus musculus
L1210 [5] = assay: Mean change in weight of mice infected with L1210 leukemia after 7 days after an intraperitoneal dose of 50 mg/kg; assay type: functional, Mus musculus
L1210 [6] = assay: Range for the survival of mice infected with L1210 leukemia after an intraperitoneal dose of 25 mg/kg for 9 days; assay type: functional, Mus musculus
L1210 [7] = assay: Increase in life span of mice infected with L1210 leukemia after an intraperitoneal dose of 12.5 mg/kg for 9 days; assay type: functional; details: Mus musculus, L1210, ip, 216 h
L1210 [8] = assay: Mean survival of mice infected with L1210 leukemia after an intraperitoneal dose of 12.5 mg/kg for 9 days; assay type: functional, Mus musculus
L1210 [9] = assay: Mean survival of mice infected with L1210 leukemia after an intraperitoneal dose of 50 mg/kg for 9 days; assay type: functional, Mus musculus
L1210 [10] = assay: Range for the survival of mice infected with L1210 leukemia after an intraperitoneal dose of 50 mg/kg for 9 days; Range is 8-16
L1210 [11] = assay: Range for the survival of mice infected with L1210 leukemia after an intraperitoneal dose of 12.5 mg/kg for 9 days; Range is 10-15; assay type: functional, Mus musculus
L1210 [12] = assay: Mean change in weight of mice infected with L1210 leukemia after 7 days after an intraperitoneal dose of 25 mg/kg; assay type: functional, Mus musculus
L1210 [13] = assay: Increase in life span of mice infected with L1210 leukemia after an intraperitoneal dose of 50 mg/kg for 9 days; assay type: functional; details: Mus musculus, L1210, ip, 216 h
[14] = Inhibitory constant against purified Folyl-polyglutamate synthase from mouse liver; assay type: functional
L1210 ( R81) = assay: Tested for cell-growth inhibition against mouse leukemic L1210/R81 cells; assay type: functional, cell-based
L1210 [15] = assay: Increase in life span of mice infected with L1210 leukemia after an intraperitoneal dose of 6.25 mg/kg for 9 days; assay type: functional; details: Mus musculus, L1210, ip, 216 h
L1210 [16] = assay: Increase in life span of mice infected with L1210 leukemia after an intraperitoneal dose of 25 mg/kg for 9 days; assay type: functional; details: Mus musculus, L1210, ip, 216 h
L1210 [17] = assay: Tested for cell-growth inhibition against mouse leukemic L1210 cells; assay type: functional, cell-based
L1210 [18] = assay: Mean change in weight of mice infected with L1210 leukemia after 7 days after an intraperitoneal dose of 12.5 mg/kg; assay type: functional, Mus musculus
L1210 [19] = assay: Mean survival of mice infected with L1210 leukemia after an intraperitoneal dose of 6.25 mg/kg for 9 days; assay type: functional, Mus musculus
L1210 [20] = assay: Range for the survival of mice infected with L1210 leukemia after an intraperitoneal dose of 4 mg/kg for 9 days; assay type: functional, Mus musculus
L1210 [21] = assay: Mean survival of mice infected with L1210 leukemia after an intraperitoneal dose of 4 mg/kg for 9 days; assay type: functional, Mus musculus
L1210 [22] = assay: Increase in life span of mice infected with L1210 leukemia after an intraperitoneal dose of 4 mg/kg for 9 days; assay type: functional; details: Mus musculus, L1210, ip, 216 h
L1210 [23] = assay: Mean change in weight of mice infected with L1210 leukemia after 7 days after an intraperitoneal dose of 4 mg/kg; assay type: functional, Mus musculus
L1210 [24] = assay: Range for the survival of mice infected with L1210 leukemia after an intraperitoneal dose of 12.5 mg/kg for 9 days; assay type: functional, Mus musculus
L1210 [25] = assay: Range for the survival of mice infected with L1210 leukemia after an intraperitoneal dose of 50 mg/kg for 9 days; assay type: functional, Mus musculus
L1210 [26] = assay: Range for the survival of mice infected with L1210 leukemia after an intraperitoneal dose of 6.25 mg/kg for 9 days; assay type: functional, Mus musculus
Mus musculus [27] = species on record: Mus musculus; assay: as §1; details: concentration not given here

Nc1nc(N)c2nc(CNc3ccc(C(=O)NC(CCCCCCC(=O)O)C(=O)O)cc3)cnc2n1 (stereo unspecified)
Survival (L1210 [1]): 11.8 days
IC50 (Dihydrofolate reductase): 54 nM
inhibition (Mus musculus [2]): 50%
Weight change (L1210 [3]): 9%
Range (L1210 [4]): 10 days
Weight change (L1210 [5]): 7%
Range (L1210 [6]): 16 days
ILS at 12.5 mg/kg (L1210 [7]): 61%
Survival (L1210 [8]): 14.2 days
Survival (L1210 [9]): 10.6 days
Range (L1210 [10]): 8 days
Range (L1210 [11]): 10 days
Weight change (L1210 [12]): 5%
ILS at 50 mg/kg (L1210 [13]): 20%
Ki [14]: 170000 nM
IC50 (L1210 ( R81)): > 218000 nM
ILS at 6.25 mg/kg (L1210 [15]): 36%
ILS at 25 mg/kg (L1210 [16]): 34%
IC50 (L1210 [17]): 20 nM
Weight change (L1210 [18]): 9%
Survival (L1210 [19]): 12 days

CN(Cc1cnc2nc(N)nc(N)c2n1)c1ccc(C(=O)N[C@@H](CCC(=O)O)C(=O)O)cc1 [METHOTREXATE]
Range (L1210 [20]): 23 days
Survival (L1210 [21]): 17.2 days
ILS at 4 mg/kg (L1210 [22]): 95%
Weight change (L1210 [23]): 8%

Nc1nc(N)c2nc(CNc3ccc(C(=O)NC(CCCCCCCCCCC(=O)O)C(=O)O)cc3)cnc2n1 (stereo unspecified)
Survival (L1210 [1]): 9.6 days
IC50 (Dihydrofolate reductase): 67 nM
Weight change (L1210 [3]): 10%
Weight change (L1210 [5]): 4%
Range (L1210 [24]): 16 days
Range (L1210 [6]): 16 days
Range (L1210 [25]): 15 days
ILS at 12.5 mg/kg (L1210 [7]): 57%
Survival (L1210 [8]): 13.8 days
Survival (L1210 [9]): 10.4 days
Weight change (L1210 [12]): -3%
ILS at 50 mg/kg (L1210 [13]): 18%
Range (L1210 [26]): 13 days
Ki [14]: 62000 nM
IC50 (L1210 ( R81)): 215000 nM
ILS at 6.25 mg/kg (L1210 [15]): 45%
ILS at 25 mg/kg (L1210 [16]): 11%
IC50 (L1210 [17]): 1.1 nM
Weight change (L1210 [18]): 10%
Survival (L1210 [19]): 12.8 days
inhibition (Mus musculus [27]): 74%
